The target in one assay is T1, mKCNQ2 channels (Mus musculus, UniProt Q9Z351).
T1 construct: expressed in transfected cells
The assay can be described thus: KCNQ patch-clamp (whole-cell recordings, HEK 293 stable cell line). The format is cell-based. The following applies: current of KCNQ2 channels, HEK 293 cells expressing mKCNQ2. As for the experimental part:
KCNQ Patch-clamp. Whole-cell patch-clamp recordings were made from an HEK 293 stable cell line expressing mKCNQ2 channels, maintained in culture for 1-2 days. Patch pipettes had initial resistances of 2.5-4 MΩ. Currents were recorded with an EPC-9 amplifier (HEKA, Lambrecht, Germany) controlled with software (Pulse, HEKA) run on a standard lab PC. Series resistance compensation was used during current recording, and set at 80%. The series resistance (R) and cell capacitance (C) were determined electronically by subtracting the capacitive currents at the onset and offset of a 5 mV voltage step. The cancellation of whole-cell capacitive transients was virtually complete in all cells. Analog current signals were low-pass filtered at 2.9 kHz using a four-pole Bessel filter −3 dB) and stored on a local network server computer at a sampling rate of […]. All recordings were performed at room temperature (20-22° C.). The pipette solution contained (mM) KCl, 150; CaCl2, 2.5; EGTA, 5; MgCl2, 1; HEPES, 10; pH to 7.3 with KOH, and Osmolality of 290-300 mOsm. The extracellular solution contained (mM): NaCl, 140; KCl, 2.5; CaCl2, 2.5; MgCl2, 1; glucose, 10; HEPES, 10; pH to 7.3 with NaOH, and Osmolality of 305-310 mOsm. […]

For assay [1], the system named is peripheral mononeuropathy nerve injury-induced tactile allodynia. The experiment in a line: Chung model of neuropathic pain (Chung surgery and von Frey test). The format is in vivo, Sprague Dawley rats. The following applies: 10 mg/kg, i.v.; von Frey thresholds over 90 min, rat. As for the experimental part: Chung model of neuropathic pain (Chung surgery and von Frey test). To test agents for activity against peripheral mononeuropathy nerve injury-induced tactile allodynia, male Sprague Dawley rats (wt. 120-160 g) were surgically prepared with unilateral tight ligation of spinal nerves L5 and L6 following the method of Kim and Chung (Kim S. H., Chung J. M. (1992) Pain, September; 50(3):355-63). After 3-4 weeks recovery, paw withdrawal to light touch was assessed as described by Chaplan et al. (Chaplan S. R., et al., (1994) J. Neurosci Methods, July; 53(1):55-63). […] After acclimation, baseline von Frey thresholds were assessed for the injured hindpaw at −15 min. […] Following drug administration, von Frey thresholds were measured at 15, 30, 60 and 90 min. Data were analyzed by a 2-way repeated measures analysis of variance followed by Dunnett's test (p<0.05). […]
Reversal of neuropathic pain behavior may be expressed as a percentage (0-100%) of the maximum possible effect, over and above the vehicle effects. […]
For example, a compound which immediately reversed neuropathic pain behavior to normal levels, such that animals only responded to the highest von Frey filament (15 g), and maintained normal levels through out the post-drug testing period (90 min) would be calculated as Δ% MPE=100%.

The subject of assay [2] is systemic polyneuropathy nerve injury-induced tactile allodynia. The assay can be described thus: Diabetic model of neuropathic pain (Streptozoticin & von Frey test). The format is in vivo, Sprague Dawley rats. The following applies: 10 mg/kg, i.v.; STZ diabetic rats, von Frey thresholds over 90 min. The protocol: Diabetic model of neuropathic pain (Streptozoticin & von Frey test). To test agents for activity against systemic polyneuropathy nerve injury-induced tactile allodynia, animals were treated with streptozoticin (STZ) to create a diabetic condition by selective cytotoxic action upon pancreatic β-islet cells that produce insulin following the method of Courteix, et al. (Courteix C., et al., (1993) Pain, April; 53(1):81-8). In brief, male Sprague Dawley rats (wt. 200-275 g) received an injection of STZ (75 mg/kg, i.p.) and diabetes was confirmed three weeks after STZ injection by measurement of tail vein blood glucose levels. After 3-4 weeks, paw withdrawal to light touch was assessed as described by Chaplan et al. (Chaplan S. R., et al., (1994) J Neurosci Methods, July; 53(1):55-63). In brief, rats are placed in a plastic cage with a wire mesh bottom and allowed to acclimate for 15-30 minutes, until cage exploration and grooming stops. […] After acclimation, baseline von Frey thresholds were assessed for the injured hindpaw at −15 min. […] Following drug administration, von Frey thresholds were measured at 15, 30, 60 and 90 min. Data were analyzed by a 2-way repeated measures analysis of variance followed by Dunnett's test (p<0.05). […]

Broadly, the EC50 is the concentration that produces a half-maximal response. In turn, `CC(NC(=O)c1sc(-c2ccccc2F)nc1C(F)(F)F)c1cccc(OC(F)(F)F)c1` (stereo not drawn) [Example 21, 2-(2-fluorophenyl)-4-(trifluoromethyl)-N-[1-[3-(trifluoromethoxy)phenyl]ethyl]-5-thiazolecarboxamide] displayed an EC50 at mKCNQ2 channels of 3 nM. The “AUC (Δ % MPE)” value in assay [1] was 28 (10 mg/kg, i.v.) Δ % MPE; in assay [2], 28 (10 mg/kg, i.v.) Δ % MPE.
